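Results reflect a 48-hour exposure of cells in 96-well plates to compound at five concentrations. Here, GI50 denotes the concentration required for 50% inhibition of growth. TGI: total growth inhibition.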
Assays:
Experiment in all cases: DTP human tumour cell line panel, 48 h
786-0 renal = tested on: 786-0 renal
A498 renal = tested on: A498 renal
A549 NSCLC = tested on: A549 NSCLC
ACHN renal = tested on: ACHN renal
BT-549 breast = tested on: BT-549 breast
CAKI-1 renal = tested on: CAKI-1 renal
CCRF-CEM leukemia = tested on: CCRF-CEM leukemia
COLO 205 colon = tested on: COLO 205 colon
DU-145 prostate = tested on: DU-145 prostate
EKVX NSCLC = tested on: EKVX NSCLC
HCT-116 colon = tested on: HCT-116 colon
HCT-15 colon = tested on: HCT-15 colon
HL-60(TB) leukemia = tested on: HL-60(TB) leukemia
HOP-62 NSCLC = tested on: HOP-62 NSCLC
HOP-92 NSCLC = tested on: HOP-92 NSCLC
HS 578T breast = tested on: HS 578T breast
HT29 colon = tested on: HT29 colon
IGROV1 ovarian = tested on: IGROV1 ovarian
K-562 leukemia = tested on: K-562 leukemia
KM12 colon = tested on: KM12 colon
LOX IMVI melanoma = tested on: LOX IMVI melanoma
M14 melanoma = tested on: M14 melanoma
MALME-3M melanoma = tested on: MALME-3M melanoma
MCF7 breast = tested on: MCF7 breast
MDA-MB-231 breast = tested on: MDA-MB-231 breast
MDA-MB-435 = tested on: MDA-MB-435
MOLT-4 leukemia = tested on: MOLT-4 leukemia
NCI-H226 lung = tested on: NCI-H226 lung
NCI-H23 lung = tested on: NCI-H23 lung
NCI-H460 lung = tested on: NCI-H460 lung
NCI-H522 lung = tested on: NCI-H522 lung
NCI/ADR-RES ovarian = tested on: NCI/ADR-RES ovarian
OVCAR-3 ovarian = tested on: OVCAR-3 ovarian
OVCAR-4 ovarian = tested on: OVCAR-4 ovarian
OVCAR-5 ovarian = tested on: OVCAR-5 ovarian
OVCAR-8 ovarian = tested on: OVCAR-8 ovarian
PC-3 prostate = tested on: PC-3 prostate
RPMI-8226 leukemia = tested on: RPMI-8226 leukemia
RXF 393 renal = tested on: RXF 393 renal
SF-268 CNS = tested on: SF-268 CNS
SF-295 CNS = tested on: SF-295 CNS
SF-539 CNS = tested on: SF-539 CNS
SK-MEL-2 melanoma = tested on: SK-MEL-2 melanoma
SK-MEL-28 melanoma = tested on: SK-MEL-28 melanoma
SK-MEL-5 melanoma = tested on: SK-MEL-5 melanoma
SK-OV-3 ovarian = tested on: SK-OV-3 ovarian
SN12C renal = tested on: SN12C renal
SNB-19 CNS = tested on: SNB-19 CNS
SNB-75 CNS = tested on: SNB-75 CNS
SR leukemia = tested on: SR leukemia
SW-620 colon = tested on: SW-620 colon
T-47D breast = tested on: T-47D breast
TK-10 renal = tested on: TK-10 renal
U251 CNS = tested on: U251 CNS
UACC-257 melanoma = tested on: UACC-257 melanoma
UACC-62 melanoma = tested on: UACC-62 melanoma
UO-31 renal = tested on: UO-31 renal

Compound `O=c1cccc(C#CCCCCOC2CCCO2)o1` (stereo not drawn) has a GI50 (786-0 renal) of 4.03 µM, a TGI (786-0 renal) of 23.6 µM and a GI50 (A498 renal) of 4.09 µM. The GI50 (A549 NSCLC) was 9.16 µM, the TGI (A549 NSCLC) was > 48.8 µM and the GI50 (ACHN renal) was 27.5 µM. It also gave a TGI (ACHN renal) of 60.5 µM, a GI50 (BT-549 breast) of 3.35 µM and a TGI (BT-549 breast) of 26.4 µM. The GI50 (CAKI-1 renal) was 11.4 µM, the TGI (CAKI-1 renal) was 33.6 µM and the GI50 (CCRF-CEM leukemia) was 7.14 µM. The TGI (CCRF-CEM leukemia) was > 79.9 µM, the GI50 (COLO 205 colon) was 16.1 µM and the TGI (COLO 205 colon) was > 31.1 µM. The GI50 (DU-145 prostate) was 10.3 µM, the TGI (DU-145 prostate) was > 80 µM and the GI50 (EKVX NSCLC) was 8.27 µM. The TGI (EKVX NSCLC) was 39 µM, the GI50 (HCT-116 colon) was 6.39 µM and the TGI (HCT-116 colon) was > 23.2 µM. For the same compound, the GI50 (HCT-15 colon) was 19.5 µM, the TGI (HCT-15 colon) was 61.4 µM and the GI50 (HL-60(TB) leukemia) was 20.7 µM. The TGI (HL-60(TB) leukemia) was 52.9 µM, the GI50 (HOP-62 NSCLC) was 7.88 µM and the TGI (HOP-62 NSCLC) was 18.2 µM. For the same compound, the GI50 (HOP-92 NSCLC) was 2.17 µM, the TGI (HOP-92 NSCLC) was 11.5 µM and the GI50 (HS 578T breast) was 7.46 µM. For the same compound, the TGI (HS 578T breast) was 29.2 µM, the GI50 (HT29 colon) was 16.5 µM and the TGI (HT29 colon) was > 60.5 µM. The GI50 (IGROV1 ovarian) was 37.2 µM, the TGI (IGROV1 ovarian) was > 88.8 µM and the GI50 (K-562 leukemia) was 52.3 µM. For the same compound, the TGI (K-562 leukemia) was > 100 µM, the GI50 (KM12 colon) was 20.4 µM and the TGI (KM12 colon) was > 45.8 µM. For the same compound, the GI50 (LOX IMVI melanoma) was 32.6 µM, the TGI (LOX IMVI melanoma) was > 74.5 µM and the GI50 (M14 melanoma) was 9.49 µM. For the same compound, the TGI (M14 melanoma) was > 27.9 µM, the GI50 (MALME-3M melanoma) was 16.5 µM and the TGI (MALME-3M melanoma) was 47 µM. The GI50 (MCF7 breast) was 8.73 µM, the TGI (MCF7 breast) was > 100 µM and the GI50 (MDA-MB-231 breast) was 15.4 µM. For the same compound, the TGI (MDA-MB-231 breast) was 51.5 µM, the GI50 (MDA-MB-435) was 16.1 µM and the TGI (MDA-MB-435) was 44.8 µM. The GI50 (MOLT-4 leukemia) was 8.06 µM, the TGI (MOLT-4 leukemia) was > 30.8 µM and the GI50 (NCI-H226 lung) was 17.8 µM. It also gave a TGI (NCI-H226 lung) of 56.2 µM, a GI50 (NCI-H23 lung) of 5 µM and a TGI (NCI-H23 lung) of 14.9 µM. For the same compound, the GI50 (NCI-H460 lung) was 6.81 µM, the TGI (NCI-H460 lung) was > 100 µM and the GI50 (NCI-H522 lung) was 3.77 µM. For the same compound, the TGI (NCI-H522 lung) was > 64.9 µM, the GI50 (NCI/ADR-RES ovarian) was 12.2 µM and the TGI (NCI/ADR-RES ovarian) was > 18 µM. For the same compound, the GI50 (OVCAR-3 ovarian) was 11.2 µM, the TGI (OVCAR-3 ovarian) was 27.1 µM and the GI50 (OVCAR-4 ovarian) was > 33.4 µM. For the same compound, the TGI (OVCAR-4 ovarian) was > 60.1 µM, the GI50 (OVCAR-5 ovarian) was 19.7 µM and the TGI (OVCAR-5 ovarian) was > 41.2 µM. For the same compound, the GI50 (OVCAR-8 ovarian) was 14.2 µM, the TGI (OVCAR-8 ovarian) was > 80.7 µM and the GI50 (PC-3 prostate) was 6.73 µM. For the same compound, the TGI (PC-3 prostate) was > 54.6 µM, the GI50 (RPMI-8226 leukemia) was 2.93 µM and the TGI (RPMI-8226 leukemia) was 63.7 µM. It also gave a GI50 (RXF 393 renal) of 6.77 µM, a TGI (RXF 393 renal) of 50.2 µM and a GI50 (SF-268 CNS) of 9.14 µM. The TGI (SF-268 CNS) was > 77.6 µM, the GI50 (SF-295 CNS) was 18.4 µM and the TGI (SF-295 CNS) was > 41.4 µM. The GI50 (SF-539 CNS) was 4.75 µM, the TGI (SF-539 CNS) was > 36.6 µM and the GI50 (SK-MEL-2 melanoma) was 12.7 µM. For the same compound, the TGI (SK-MEL-2 melanoma) was > 50.4 µM, the GI50 (SK-MEL-28 melanoma) was 23.9 µM and the TGI (SK-MEL-28 melanoma) was > 56.8 µM. The GI50 (SK-MEL-5 melanoma) was 7.47 µM, the TGI (SK-MEL-5 melanoma) was > 16.4 µM and the GI50 (SK-OV-3 ovarian) was > 30.4 µM. The TGI (SK-OV-3 ovarian) was > 54.1 µM, the GI50 (SN12C renal) was 98.6 µM and the TGI (SN12C renal) was > 100 µM. For the same compound, the GI50 (SNB-19 CNS) was > 28.6 µM, the TGI (SNB-19 CNS) was > 56.5 µM and the GI50 (SNB-75 CNS) was 11.4 µM. The TGI (SNB-75 CNS) was > 21.4 µM, the GI50 (SR leukemia) was 20.4 µM and the TGI (SR leukemia) was > 100 µM. For the same compound, the GI50 (SW-620 colon) was 8.96 µM, the TGI (SW-620 colon) was > 56.7 µM and the GI50 (T-47D breast) was 22.7 µM. For the same compound, the TGI (T-47D breast) was > 48.8 µM, the GI50 (TK-10 renal) was 13.4 µM and the TGI (TK-10 renal) was 35.6 µM. The GI50 (U251 CNS) was 28.8 µM, the TGI (U251 CNS) was > 70.1 µM and the GI50 (UACC-257 melanoma) was 9.49 µM. The TGI (UACC-257 melanoma) was > 20.2 µM, the GI50 (UACC-62 melanoma) was 15.9 µM and the TGI (UACC-62 melanoma) was > 56.8 µM. For the same compound, the GI50 (UO-31 renal) was 9.07 µM and the TGI (UO-31 renal) was > 57.6 µM.

— PubChem BioAssay (NCI)
